Experimental data taken from patent US7273715B2 (priority 2003, dated 2007).
Like-named read-outs stand apart in the source and are kept apart here. Peptide text beside a SMILES is read from it. * marks the point of attachment. Cbz = O=C(OCc1ccccc1)*

How the values were obtained:
[1] = biological target: T1, GS-9005 hydrolase A (Homo sapiens, UniProt P42785); type: biochemical
T1 construct: Varying amounts of purified GS-9005 hydrolase A and control enzymes; from tissue; host or cells: human peripheral blood mononuclear cells (PBMC), purified by Q15 flow-through, SP-Sepharose, Butyl Sepharose HIC and lentil lectin chromatography
T1 sequence (P42785 46-496): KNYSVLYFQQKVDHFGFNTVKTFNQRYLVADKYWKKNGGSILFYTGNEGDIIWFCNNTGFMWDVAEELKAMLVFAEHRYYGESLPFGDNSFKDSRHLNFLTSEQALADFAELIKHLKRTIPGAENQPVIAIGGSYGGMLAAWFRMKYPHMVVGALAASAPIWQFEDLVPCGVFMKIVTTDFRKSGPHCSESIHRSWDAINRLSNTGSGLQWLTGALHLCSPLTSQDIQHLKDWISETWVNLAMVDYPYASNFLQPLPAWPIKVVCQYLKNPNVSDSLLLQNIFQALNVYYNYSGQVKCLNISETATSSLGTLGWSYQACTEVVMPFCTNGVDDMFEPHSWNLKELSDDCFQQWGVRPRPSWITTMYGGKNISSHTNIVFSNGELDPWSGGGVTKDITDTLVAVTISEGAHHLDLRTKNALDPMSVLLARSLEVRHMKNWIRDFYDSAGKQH

[2] = biological target: Human Prolylcarboxypeptidase (Homo sapiens, UniProt P42785); settings: read-out: Inhibition profile, ProlylcarboxyPeptidase; cited from earlier work
[3] = biological target: T1, GS-9005 hydrolase A; type: biochemical; remark: listed apart in the source
[4] = pH 6.5, read-out: IC50 (inhibition profile, 9005 Hydrolase A)
[5] = read-out: concentration at which GS-9005 hydrolase A is inhibited by 50%

O=C[C@@H]1CCCN1C(=O)[C@@H]1CCCN1C(=O)OCc1ccccc1 [Cbz-pro-pro-COH, Carboxybenzoyl-Pro-Pro-COH] (Cbz-Pro-Pro-aldehyde)
inhibition of GS-9005 hydrolase A (in words) [1]: inhibited | IC50 [1, 4]: 1 µM | IC50 [1, 5]: ~1 µM | IC50 [2]: 1 µM

CCOC(=O)[C@H](C)OP(=O)(COc1ccc(C[C@H](NC(=O)O[C@H]2CO[C@H]3OCCC32)[C@H](O)CN(CC(C)C)S(=O)(=O)c2ccc(OC)cc2)cc1)Oc1ccccc1 (stereo partly shown) [Compound A]
specific activity of GS-9005 hydrolase A against the compound (comparison in words) [3]: greater than its specific activity against Compound L

CCOC(=O)[C@H](C)NP(=O)(COc1ccc(C[C@@H]2[C@H](O)[C@@H](O)[C@@H](Cc3ccc(OC)cc3)N(Cc3ccc4[nH]ncc4c3)C(=O)N2Cc2ccc3[nH]ncc3c2)cc1)N[C@@H](C)C(=O)OCC [Compound BB]
specific activity of GS-9005 hydrolase A against the compound (comparison in words) [3]: approximately equivalent specific activity

CCOC(=O)[C@H](C)NP(=O)(COc1ccc(C[C@@H]2[C@H](O)[C@@H](O)[C@@H](Cc3ccc(OC)cc3)N(Cc3ccc4[nH]ncc4c3)C(=O)N2Cc2ccc3[nH]ncc3c2)cc1)Oc1ccccc1 (stereo partly shown) [Compound CC]
specific activity of GS-9005 hydrolase A against the compound (comparison in words) [3]: approximately equivalent specific activity

CCOC(=O)[C@H](C)OP(=O)(COc1ccc(C[C@@H]2[C@H](O)[C@@H](O)[C@@H](Cc3ccc(OC)cc3)N(Cc3ccc4[nH]ncc4c3)C(=O)N2Cc2ccc3[nH]ncc3c2)cc1)Oc1c(C)cccc1C (stereo partly shown) [Compound EE]
specific activity of GS-9005 hydrolase A against the compound (comparison in words) [3]: greater than its specific activity against Compound W

CCOC(=O)[C@H](C)OP(=O)(CCNCc1ccc(Cn2c(COC(N)=O)nc(C(C)C)c2Sc2cc(Cl)cc(Cl)c2)cc1)Oc1ccccc1 (stereo partly shown) [Compound GG]
specific activity of GS-9005 hydrolase A against the compound (comparison in words) [3]: greater than its specific activity against Compound DD

CCOC(=O)COP(=O)(COc1ccc(Cn2c(COC(N)=O)nc(C(C)C)c2Sc2cc(Cl)cc(Cl)c2)cc1)Oc1ccccc1 (stereo not shown) [Compound HH]
specific activity of GS-9005 hydrolase A against the compound (comparison in words) [3]: greater than its specific activity against Compound I

CCSc1ccc(CN2CCCN(Cc3cccnc3)CC2)cc1 [Compound JJ]
specific activity of GS-9005 hydrolase A against the compound (comparison in words) [3]: greater than its specific activity against Compound AA

CCOC(=O)[C@H](C)NP(=O)(COc1ccc(Cn2c(COC(N)=O)nc(C(C)C)c2Sc2cc(Cl)cc(Cl)c2)cc1)Oc1ccccc1 (stereo partly shown) [Compound KK]
specific activity of GS-9005 hydrolase A against the compound (comparison in words) [3]: greater than its specific activity against Compound FF

C=C(OC(C)C)[C@H](C)N[P@](=O)(CO[C@H](C)Cn1cnc2c(C)ncnc21)Oc1ccccc1 [Compound K]
specific activity of GS-9005 hydrolase A against the compound (comparison in words) [3]: approximately equivalent specific activity

COC(=O)[C@H](C)NP(=O)(COc1ccc(Cn2c(COC(N)=O)nc(C(C)C)c2Sc2cc(Cl)cc(Cl)c2)cc1)Oc1ccccc1 (stereo partly shown) [Compound LL]
specific activity of GS-9005 hydrolase A against the compound (comparison in words) [3]: approximately equivalent specific activity

COC(=O)[C@H](C)N[P@](=O)(CO[C@H](C)Cn1cnc2c(N)ncnc21)Oc1ccccc1 [Compound U]
specific activity of GS-9005 hydrolase A against the compound (comparison in words) [3]: approximately equivalent specific activity

C=C(OC(C)C)C(C)OP(=O)(CCNCc1ccc(C[C@H](NC(=O)O[C@H]2CO[C@H]3OCC[C@H]32)[C@H](O)CN(CC(C)C)S(=O)(=O)c2ccc(OC)cc2)cc1)Oc1ccccc1 (stereo partly shown) [Compound X]
specific activity of GS-9005 hydrolase A against the compound (comparison in words) [3]: greater than its specific activity against Compound V

CCOC(=O)[C@H](C)OP(=O)(CCN1CCN(C(=O)c2c3c(c(O)c4ncccc24)C(=O)N(Cc2ccc(F)cc2)C3)CC1)Oc1ccccc1 (stereo partly shown) [Compound Y]
specific activity of GS-9005 hydrolase A against the compound (comparison in words) [3]: greater than its specific activity against Compound B

C=C(OCC)[C@H](C)OP(=O)(CCNC(=O)c1c2c(c(O)c3ncccc13)C(=O)N(Cc1ccc(F)cc1)C2)Oc1ccccc1 (stereo partly shown) [Compound Z]
specific activity of GS-9005 hydrolase A against the compound (comparison in words) [3]: approximately equivalent specific activity

O=c1oc(Cl)c(Cl)c2ccccc12 [DCI, 3,4 dichloroisocoumarin]
inhibition of GS-9005 hydrolase A (in words) [1]: inhibited

O=S(=O)(F)Cc1ccccc1 [PMSF]
IC50 [1, 4]: 200 µM | IC50 [1, 5]: ~200 µM | IC50 [2]: 100 to 300 µM
